According to patent publication US20030229044A1, “Use of statins and other immunomodulatory agents in the treatment of autoimmune disease” (priority 2002, published 2003):
Entries after “also recorded” stand apart in the source; their conditions may differ.

Assays:
NOD mice = conditions: as proteins, under tolerizing conditions; cited from earlier work
EAE in Lewis rats = assay: MBPp85-99-induced EAE in Lewis rats, ordered peptides; type: in vivo, rat; conditions: single intraperitoneal dose of 0.5 mg peptide on day of mean disease onset
Procedure: FIG. 8 is a graph depicting the prevention of EAE in rats treated with ordered peptides. […] Animals were injected with an emulsion of 0.1 mg of MBPp85-99 in complete Freund's adjuvant for EAE induction. Ten days later, when the clinical manifestations of disease became apparent, a single intra peritoneal dose of peptide {SEQ ID NO:4} […] (squares), {SEQ ID NO:5} […] (triangles), or PBS (circles) was administered. Results are expressed as mean disease score of groups of six animals.
Animals. Female Lewis rats (6-8 weeks old), were purchased from Harlan Sprague Dawley (Indianapolis, Ind.)
Peptides. For immunization and disease reversal, peptides were synthesized on a peptide synthesizer (model 9050: MilliGen, Burlington, Mass.) by standard 9-fuorenylmethoxycarbonyl chemistry. Peptides were purified by HPLC. Structure was confirmed by amino acid analysis and mass spectroscopy. Peptides used for the experiments were: {SEQ ID NO:11} […] (MBPp85 99), {SEQ ID NO:4} […], {SEQ ID NO:5} […].
EAE induction. […] Rats were injected subcutaneously with 0.1 mi of the peptide emulsion.
EAE treatment. Rats previously immunized with MBPp85-99 for EAE induction were scored from day eight after peptide injection. On the day of mean disease onset, animals were injected intraperitoneally with a solution of 0.5 mg of peptide in PBS (one dose of 0.25 ml).

[1] = tested on: lymph node cells and spleen cells from EAE donors; assay: Cytokine profile determination by ELISA; type: cell-based, mouse
Procedure: Cytokine Profile Determination. Lymph node cells and spleen cells from EAE donors were stimulated in vitro (2.5×10^6 cells/ml) in 24-well plates with or without the encephalogenic peptide or with […] as positive control. Cell culture supernatants were collected at different time points for measurements of cytokine levels: 48 hours for IL-2, 72 hours for IFN-γ and TNF α, and 120 hours for IL-4 and IL-10. Cytokine levels were determined using specific ELISA kits for the corresponding cytokines according to the manufacturers protocols (PharMingen, San Diego, Calif., USA).

[2] = tested on: PLP p139-151-stimulated spleen and lymph node cells; assay: Ag specific ex-vivo T cell proliferation assay; type: cell-based, mouse
Excerpt: Ag specific ex-vivo T cell proliferation assay.

STAT6 = assay: Western blot for STAT6 phosphorylation in draining lymph node cells; type: in vivo, mouse; conditions: lymph nodes of SJL/J mice, 1 mg/kg and 10 mg/kg, 10 days after EAE induction; PBS: none detectable
Procedure: All procedures were handled on ice. As a positive control, lymph node cells from naive mice were isolated and cultured for one hour with mouse recombinant IL-4 (10 ng/ml) or INF-γ (100 units/ml), for STAT6 and STAT4 expression respectively. Protein concentrations were determined by BCA protein assay (Pierce). Lysate was added to 3×SDS loading buffer (Cell Signaling Technology) with 40 mM DTT. Products were separated by electrophoresis on a 4-15% SDS-PAGE gradient gel (BioRad). Pre-stained markers (Invitrogen) were used to determine MW. Gels were blotted to PVDF membranes at 100 V in 25 mM Tris, 192 mM glycine and 20% (v/v) methanol, then blocked 1 hr at RT with Tris-buffered saline (TBS) containing 0.1% Tween-20 and 5% nonfat dry milk. After washing in TBS and 0.1% Tween 20, membranes were hybridized overnight at 4° C. with anti-phospho-STAT6 Antibody or anti-phospho-STAT4 antibody (Zymed, South San Francisco, Calif.) diluted 1:1000 in TBS, 0.1% Tween 20 and 5% BSA, the membranes were then processed by ECL Plus prebetween protocol (Amersham Life Sciences) for visualization of the bands by chemiluminescence. […]

[3] = tested on: PLP p139-151-induced EAE in SJL/J mice; assay: PLP p139-151-induced chronic relapsing EAE in SJL/J mice; type: in vivo, mouse
Excerpt: (§1) Animals. Female SJL/J, B10.PL and C57BL/6 mice (8 to 12-week-old) were purchased from the Jackson Laboratory (Bar Harbor, Me.). MBP Ac 1-11 transgenic (tg) TCR mice were backcrossed with B10.PL mice to obtain susceptibility to EAE. All animal protocols were approved by the Division of comparative Medicine at Stanford and in accordance with the National Institutes of Health guidelines.
(§2) Peptides. Peptides were synthesized on a peptide synthesizer (model 9050; MilliGen, Burlington, Mass.) by standard 9-fluorenylmethoxycarbonyl chemistry. Peptides were purified by HPLC. Structures were confirmed by amino acid analysis and mass spectroscopy.
(§3) EAE Induction. Relapsing remitting EAE was induced in SJL/J mice with 100 μg of PLP139-151 peptide, chronic progressive EAE was induced either in C57BL/6 or MBP Ac1-11 TCR Tg mice with 100 μg of MOG35-55 peptide or 100 μg of MBP Ac1-11 peptide, respectively. All peptides were dissolved in PBS at a concentration of 2 mg/ml and emulsified with an equal volume of CFA, which consists of incomplete Freund's adjuvant supplemented with 4 mg/ml heat-killed mycobacterium tuberculosis H37Ra (Difco Laboratories, Detroit, Mich.). […] Mice were clinically scored as follows: 0, no paralysis; 1, tail weakness or paralysis; 2, hindlimb weakness or paralysis; 3, hindlimb paralysis and forelimb weakness; 4, hindlimb and forelimb paralysis; and 5, moribund or death. […]

[4] = tested on: MOG p35-55-induced EAE in C57BL/6 mice; assay: MOG p35-55-induced chronic EAE in C57BL/6 mice; type: in vivo, mouse
Excerpt: as §1, §2, §3

[5] = tested on: MHC II expression (CIITA p IV gene); conditions: through the effect on the CIITA p IV gene; cited from earlier work
[6] = tested on: MBP Ac1-11-induced EAE in MBP Ac1-11 TCR Tg mice; assay: MBP Ac1-11-induced acute EAE in MBP Ac1-11 Tg mice; type: in vivo, mouse
Excerpt: as §1, §2
EAE Induction. […] All peptides were dissolved in PBS at a concentration of 2 mg/ml and emulsified with an equal volume of CFA, which consists of incomplete Freund's adjuvant supplemented with 4 mg/ml heat-killed mycobacterium tuberculosis H37Ra (Difco Laboratories, Detroit, Mich.). Mice were injected subcutaneously with 0.1 ml of the peptide emulsion. […] Mice were clinically scored as follows: 0, no paralysis; 1, tail weakness or paralysis; 2, hindlimb weakness or paralysis; 3, hindlimb paralysis and forelimb weakness; 4, hindlimb and forelimb paralysis; and 5, moribund or death. […]

microglia and astrocytes = conditions: cited from earlier work
[7] = ELISA, SJL/J mice, 1 and 10 mg/kg

Compound: insulin
- diabetes in NOD mice (NOD mice): prevents disease

Compound: EYYKEYYKEYYK [ordered peptide with repeated motif EYYK]
- EAE in Lewis rats (mean disease score) (EAE in Lewis rats): effective in preventing and treating experimental autoimmune encephalomyelitis; also recorded: effectively prevent and treat EAE in Lewis rats; also recorded: prevents the development of EAE

Compound: CC(C)c1c(C(=O)Nc2ccccc2)c(-c2ccccc2)c(-c2ccc(F)cc2)n1CC[C@@H](O)C[C@@H](O)CC(=O)O [atorvastatin]
- secretion of IL-10 ([1]; ELISA, SJL/J mice): observed at the higher treatment dose
- IL-4 production [1, 7]: induced at both treatment doses
- Production of IL-2 [1, 7]: reduced, although to a much greater extent in mice treated with 10 mg/kg
- secretion of IFN-γ ([1]; ELISA, SJL/J mice, both treatment doses): dramatic reduction
- Th2 bias (proliferation and cytokines) ([1]; repeated in C57BL/6 and MBP Ac1-11-specific transgenic mice): promoted an almost identical Th2 bias
- PLP p139-151-specific proliferative responses ([2]; 3H-thymidine incorporation, SJL/J mice treated with 1 or 10 mg/kg): suppressed in a dose-related fashion
- cell death ([2]; in vitro cultures of cells from treated mice): not observed increased cell death
- phosphorylated STAT6 (STAT6): phosphorylated STAT6 is seen
- relapsing EAE (mean EAE score) ([3]; treatment at onset): effective in prevention of relapsing EAE
- ongoing relapsing EAE (mean EAE score) ([3]; treatment begun after recovery from acute EAE): reversal of ongoing relapsing EAE
- EAE (mean EAE score) ([4]; daily oral 1 mg/kg or 10 mg/kg starting at the time of EAE onset, C57Bl/6 female mice): suppressed EAE induction
- EAE (mean EAE score) ([4]; treatment after onset, C57Bl/6 mice): ameliorated EAE
- expression of MHC II [5]: could inhibit the expression of MHC II
- acute EAE progression [6]: successfully prevented acute EAE progression

Compound: CC[C@H](C)C(=O)O[C@H]1C[C@@H](C)C=C2C=C[C@H](C)[C@H](CC[C@@H]3C[C@@H](O)CC(=O)O3)[C@H]21 [lovastatin]
- production of iNOS and proinflammatory cytokines (microglia and astrocytes): inhibited production of nitric oxide synthase (iNOS) and proinflammatory cytokines (TNFα, IL-1β and IL-6)
